Test [1] deals with SARS-CoV-2. As to the kind of experiment: Inhibitory activity of cytopathic effect (CPE) in HEK293T/ACE2-TMPRSS2 cells. As to conditions: Severe acute respiratory syndrome coronavirus 2, HEK-293T, 72 h. In kind it is cell-based. (In general: Damage to the host cells serves as the signal in cytopathic effect assays.)
For test [2], the target named is SARS-CoV-2 3CL protease (Severe acute respiratory syndrome coronavirus 2, UniProt P0DTD1). As to the kind of experiment: Inhibitory activity test against SARS-CoV-2 3CL proteases. In kind it is biochemical.
The mark [3] stands for this setting: 50% SARS-CoV-2 infected cell death inhibitory concentration, HEK293T/ACE2-TMPRSS2 cells, CellTiter-Glo 2.0 after 3 days culture, read-out: EC50.
Setting [4] is: read-out: IC50 (50% SARS-CoV-2 3CL protease inhibitory concentration).
[5] abbreviates: HEK293T/ACE2-TMPRSS2 cells, cultured 3 days, CellTiter-Glo 2.0 luminescence, read-out: EC50 (50% SARS-CoV-2 infected cell death inhibitory concentration).
Setting [6] is: IC50 (50% SARS-CoV-2 3CL protease inhibitory concentration).
The mark [7] stands for this setting: read-out: EC50 (50% SARS-CoV-2 infected cell death inhibitory concentration).

These results are taken from patent publication US20240400560A1, “BICYCLIC HETEROCYCLIC DERIVATIVE HAVING VIRAL GROWTH INHIBITORY ACTIVITY AND PHARMACEUTICAL COMPOSITION CONTAINING SAME” (Shionogi & Co., Ltd., priority 2021, published 2024).

Like-named read-outs stand apart in the source and are kept apart here. Some results are limits rather than exact numbers.

On to `[2H]C([2H])([2H])O[C@@H]1CCN(c2cc3c(c(OC)n2)c(=O)n(-c2cncc(Cl)c2C)c(=O)n3-c2ccc(F)c(Cl)c2)C1` (atropisomer, axis not shown) [Compound I-0947], for which, in test [1] (setting [3]), the EC50 came to 6.34 nM. For the same molecule, in test [2] (setting [4]), the IC50 is 2.3 nM. Take `Cn1cnc(Cn2c(=O)c3c4nccnc4c(N4CC[C@@H](O)C4)cc3n(Cc3cc(F)c(F)c(F)c3)c2=O)n1` (racemic) [Compound I-0552]: the EC50 in test [1] (setting [5]) lay in the range of 100 to 1000 nM. In addition, the IC50 in test [2] (setting [4]) is less than 100 nM. For `Cn1cnc(Cn2c(=O)c3c4ncn(C)c4c(N4CC[C@@H](F)C4)cc3n(Cc3cc(F)c(F)c(F)c3)c2=O)n1` (racemic) [Compound I-0554], the EC50 in test [1] (setting [3]) was 2750 nM. For the same molecule, in test [2] (setting [4]), the IC50 is 330 nM. On to `Cn1cnc(Cn2c(=O)c3c4c(c(-c5cc(C#N)ccc5Cl)cc3n(Cc3cc(F)c(F)c(F)c3)c2=O)CCO4)n1` [Compound I-0414], for which the IC50 in test [2] (setting [4]) amounted to 1.5 nM. The same measure, in the same setting: next, `Cn1cnc(Cn2c(=O)c3c4c(c(N5CC[C@@H](O)C5)cc3n(Cc3cc(F)c(F)c(F)c3)c2=O)CCO4)n1` [Compound I-0415]: less than 100 nM; `Cn1cnc(Cn2c(=O)c3c4c(c(N5C[C@H]6C[C@@H]5CN6)cc3n(Cc3cc(F)c(F)c(F)c3)c2=O)CCO4)n1` [Compound I-0429]: less than 100 nM. Consider `N#Cc1ccc(Cl)c(-c2cc3c(c(=O)[nH]2)c(=O)n(-c2cncc(Cl)c2)c(=O)n3Cc2cc(F)c(F)c(F)c2)c1` [Compound I-0431], for which the IC50 in test [2] (setting [4]) was found to be 11 nM.

Take `Cn1c(-c2cc(C#N)ccc2Cl)cc2c(c1=O)c(=O)n(-c1cncc(Cl)c1)c(=O)n2Cc1cc(F)c(F)c(F)c1` [Compound I-0435]: the IC50 in test [2] (setting [4]) was 1 nM.

`CCn1c(-c2cc(C#N)ccc2Cl)cc2c(c1=O)c(=O)n(-c1cncc(Cl)c1)c(=O)n2Cc1cc(F)c(F)c(F)c1` [Compound I-0437]: the IC50 in test [2] (setting [4]) worked out at 1.3 nM. Still for that read-out and setting: next, `CC1COc2c1c(-c1cc(C#N)ccc1Cl)cc1c2c(=O)n(Cc2ncn(C)n2)c(=O)n1Cc1cc(F)c(F)c(F)c1` (centres unmarked) [Compound I-0438]: 3.5 nM; `CC1Cc2c(-c3cc(C#N)ccc3Cl)cc3c(c2O1)c(=O)n(Cc1ncn(C)n1)c(=O)n3Cc1cc(F)c(F)c(F)c1` (centres unmarked) [Compound I-0439]: 4.7 nM. The same measure, in the same setting: then `CC1COc2c1c(N1CC[C@@H](O)C1)cc1c2c(=O)n(Cc2ncn(C)n2)c(=O)n1Cc1cc(F)c(F)c(F)c1` (some centres unmarked) [Compound I-0440], with 10 nM; and `N#Cc1ccc(Cl)c(-c2cc3c(c4c2CCO4)c(=O)n(Cc2ncccn2)c(=O)n3Cc2cc(F)c(F)c(F)c2)c1` [Compound I-0442], with less than 100 nM.

With `CNC(=O)Cn1c(=O)c2c3c(c(-c4cc(C#N)ccc4Cl)cc2n(Cc2cc(F)c(F)c(F)c2)c1=O)CCO3` [Compound I-0443], in test [2] (setting [4]), the IC50 was less than 100 nM. On the same count and under the same terms, then `COc1nc(N2CC[C@@H](C(N)=O)C2)cc2c1c(=O)n(Cc1ncn(C)n1)c(=O)n2Cc1cc(F)c(F)c(Cl)c1` [Compound I-0445], with 22 nM.

The molecule `COc1nc(N2CC[C@H](F)C2)cc2c1c(=O)n(Cc1ncn(C)n1)c(=O)n2Cc1cc(F)c(F)c(F)c1` [Compound I-0446] showed an IC50 in test [2] (setting [6]) of less than 100 nM.

Take `COc1nc(N2CC[C@@H](OC)C2)cc2c1c(=O)n(Cc1ncn(C)n1)c(=O)n2Cc1cc(F)c(F)c(F)c1` [Compound I-0449]: in test [2] (setting [4]), the IC50 is 37 nM. Still for that read-out and setting: next, `COc1nc(N2CCC(C#N)C2)cc2c1c(=O)n(Cc1ncn(C)n1)c(=O)n2Cc1cc(F)c(F)c(F)c1` (centres unmarked) [Compound I-0451]: less than 100 nM. As for `COc1nc(N2CC[C@@H](F)C2)cc2c1c(=O)n(Cc1ncn(C)n1)c(=O)n2Cc1cc(F)c(F)c(F)c1` [Compound I-0453], the IC50 in test [2] (setting [6]) came to 2.5 nM. For the molecule `COc1nc(N2C[C@H]3C[C@@H]2CN3)cc2c1c(=O)n(-c1cncc(Cl)c1)c(=O)n2Cc1cc(F)c(F)c(F)c1` [Compound I-0459], the IC50 in test [2] (setting [4]) is less than 100 nM. Same read-out and setting: then `Cn1cnc(Cn2c(=O)c3c4c(c(-c5cc(C#N)ccc5Cl)cc3n(Cc3cc(F)c(F)c(F)c3)c2=O)CCCO4)n1` [Compound I-0460], with 9.2 nM. In turn, `COc1nc(C2=CC3CCC(C2)N3)cc2c1c(=O)n(-c1cncc(Cl)c1)c(=O)n2Cc1cc(F)c(F)c(F)c1` (centres unmarked) [Compound I-0464] showed an IC50 in test [2] (setting [6]) of 11 nM. Consider `[2H]C1([2H])N(c2cc3c(c(OC)n2)c(=O)n(Cc2ncn(C)n2)c(=O)n3Cc2cc(F)c(F)c(F)c2)C([2H])([2H])C([2H])([2H])C1([2H])[2H]` [Compound I-0466], for which the IC50 in test [2] (setting [4]) was less than 100 nM.

Consider `Cn1cnc(Cn2c(=O)c3c4c(c(-c5cc(N=S(C)(C)=O)ccc5Cl)cc3n(Cc3cc(F)c(F)c(F)c3)c2=O)CCO4)n1` [Compound I-0472], for which, in test [2] (setting [4]), the IC50 was less than 100 nM. As for `Cn1cnc(Cn2c(=O)c3c4occc4c(-c4cc(C#N)ccc4Cl)cc3n(Cc3cc(F)c(F)c(F)c3)c2=O)n1` [Compound I-0473], the IC50 in test [2] (setting [4]) was 4.1 nM.

Regarding `COc1nc(N2CC[C@@H](F)C2)cc2c1c(=O)n(Cc1ncn(C)n1)c(=O)n2Cc1cc(F)c(F)c(Cl)c1` [Compound I-0484], the IC50 in test [2] (setting [4]) is less than 100 nM. Take `Cn1cnc(Cn2c(=O)c3c(F)c(Cl)c(-c4cc5c(cc4Cl)NC(=O)C5)cc3n(Cc3cc(F)c(F)c(Cl)c3)c2=O)n1` [Compound I-0492]: the IC50 in test [2] (setting [4]) was less than 100 nM. The same measure, in the same setting: then `COc1nc2cc(-c3cc(OC)c4c(=O)n(Cc5ncn(C)n5)c(=O)n(Cc5cc(F)c(F)c(F)c5)c4c3)c(Cl)cc2[nH]1` [Compound I-0501], with 6.4 nM; and `N#Cc1ccc(Cl)c(-c2cc3c(c4c2CCO4)c(=O)n(Cc2cc(F)c[nH]c2=O)c(=O)n3Cc2cc(F)c(F)c(F)c2)c1` [Compound I-0504], with less than 100 nM; and `Cn1cnc(Cn2c(=O)c3c(F)c(Cl)c(-c4cc(C#N)ccc4Cl)cc3n(Cc3cc(F)c(F)c(Cl)c3)c2=O)n1` [Compound I-0506], with less than 100 nM. The same measure, in the same setting: then `COc1nc(N2CC[C@@H](C(N)=O)C2)cc2c1c(=O)n(-c1cncc(Cl)c1)c(=O)n2Cc1cc(F)c(F)c(F)c1` [Compound I-0511], with less than 100 nM; and `COc1cc(-c2cnc(N)cc2Cl)cc2c1c(=O)n(Cc1ncn(C)n1)c(=O)n2Cc1cc(F)c(F)c(F)c1` [Compound I-0514], with less than 100 nM. The same measure, in the same setting: next, `COc1nc2c(=O)n(Cc3ncn(C)n3)c(=O)n(Cc3cc(F)c(F)c(F)c3)c2cc1-c1cc(C#N)ccc1Cl` [Compound I-0516]: 15 nM; `COc1cc(-c2cc(C(O)C(F)(F)F)ccc2Cl)cc2c1c(=O)n(Cc1ncn(C)n1)c(=O)n2Cc1cc(F)c(F)c(F)c1` (centres unmarked) [Compound I-0517]: less than 100 nM; `COc1ccc(Cl)c(-c2cc(OC)c3c(=O)n(Cc4ncn(C)n4)c(=O)n(Cc4cc(F)c(F)c(F)c4)c3c2)c1` [Compound I-0523]: 32 nM.

On to `COc1nc(N2C[C@@H]3CC[C@H]2CN3)cc2c1c(=O)n(-c1cncc(Cl)c1)c(=O)n2Cc1cc(F)c(F)c(Cl)c1` [Compound I-0540], for which the IC50 in test [2] (setting [4]) is less than 100 nM. As for `COc1nc(N2[C@@H]3CC[C@H]2CNC3)cc2c1c(=O)n(-c1cncc(Cl)c1)c(=O)n2Cc1cc(F)c(F)c(F)c1` [Compound I-0541], in test [2] (setting [6]), the IC50 worked out at 3.4 nM. For `Cn1cnc(Cn2c(=O)c3c(F)c(I)c(-c4cc(C#N)ccc4Cl)cc3n(Cc3cc(F)c(F)c(Cl)c3)c2=O)n1` [Compound I-0542], in test [2] (setting [4]), the IC50 was less than 100 nM. In the case of `COc1cc(-c2cc(C3(O)CC3)ccc2Cl)cc2c1c(=O)n(Cc1ncn(C)n1)c(=O)n2Cc1cc(F)c(F)c(F)c1` [Compound I-0546], in test [1] (setting [5]), the EC50 is less than 100 nM. The IC50 in test [2] (setting [4]) is less than 100 nM. As for `O=c1c2cnc(N3[C@@H]4CC[C@H]3CNC4)cc2n(Cc2cc(F)c(F)c(Cl)c2)c(=O)n1-c1cnc2ccccn12` [Compound I-0547], the EC50 in test [1] (setting [7]) is less than 100 nM. In test [2] (setting [6]), this molecule showed an IC50 of less than 100 nM. Take `O=c1c2c(F)cc(N3[C@@H]4CC[C@H]3CNC4)cc2n(Cc2cc(F)c(F)c(Cl)c2)c(=O)n1-c1cnc2ccccn12` [Compound I-0548]: in test [1] (setting [7]), the EC50 was less than 100 nM. The molecule further gave an IC50 in test [2] (setting [6]) of less than 100 nM. For `COc1nc2c(=O)n(Cc3ncn(C)n3)c(=O)n(Cc3cc(C#N)ccc3C)c2cc1-c1cc(C#N)ccc1Cl` [Compound I-0549], the EC50 in test [1] (setting [5]) lay in the range of 100 to 1000 nM. Also, in test [2] (setting [4]), the IC50 is less than 100 nM. The matching figures for `COc1nc2c(=O)n(Cc3ncn(C)n3)c(=O)n(Cc3cc(Cl)cc(Cl)c3)c2cc1-c1cc(C#N)ccc1Cl` [Compound I-0550]: less than 100 nM and less than 100 nM. On the same counts, the results for `COc1nc2c(=O)n(Cc3ncn(C)n3)c(=O)n(Cc3cc(Cl)c(F)cc3Cl)c2cc1-c1cc(C#N)ccc1Cl` [Compound I-0551] are less than 100 nM and less than 100 nM. `CC(C)Nc1cc2c(c(=O)n(Cc3ncn(C)n3)c(=O)n2Cc2cc(F)c(F)c(F)c2)c2ncn(C)c12` [Compound I-0553]: in test [2] (setting [4]), the IC50 was 100 to 1000 nM.

On to `Cn1cnc(Cn2c(=O)c3c4ncn(C)c4c(-c4cc(C#N)ccc4Cl)cc3n(Cc3cc(F)c(F)c(F)c3)c2=O)n1` [Compound I-0556], for which the EC50 in test [1] (setting [3]) came out at 376 nM. For the same molecule, the IC50 in test [2] (setting [4]) amounted to 0.94 nM. As to `COc1ccc(Cl)c(-c2cc(OC)c3c(=O)n(Cc4ncn(C)n4)c(=O)n(Cc4cc(F)c(F)c(F)c4)c3c2)c1F` [Compound I-0557], the EC50 in test [1] (setting [5]) was 100 to 1000 nM. In addition, the IC50 in test [2] (setting [4]) was less than 100 nM. On the same counts, the results for `Cn1cnc(Cn2c(=O)c3c4c(c(-c5ncc(F)cc5Cl)cc3n(Cc3cc(F)c(F)c(Cl)c3)c2=O)CCO4)n1` [Compound I-0561] are less than 100 nM and less than 100 nM. On to `Cn1cnc(Cn2c(=O)c3c(cc(-c4cc(C#N)ccc4Cl)n4cnnc34)n(Cc3cc(F)c(F)c(F)c3)c2=O)n1` [Compound I-0644], for which the IC50 in test [2] (setting [4]) is less than 100 nM.

Regarding `Cn1cnc(Cn2c(=O)c3nnc(N4CC[C@@H](F)C4)cc3n(Cc3cc(F)c(F)c(F)c3)c2=O)n1` [Compound I-0935], the IC50 in test [2] (setting [4]) is 1000 to 10000 nM.
